From US20050191348A1 (priority 2004, published 2005)
Marks after values point to notes of the source that are not given here.

What was measured:
MAPK = MAPK activation (phospho-p44/42 MAPK immunoblot) in PC12 cells; type: cell-based, rat
Method: (viii) Extracellular signal-regulated kinase (ERK) activity. The kinase activity of the ERKs was measured using the MAPK assay kit (Cell Signaling Technology) according to the manufacturer's protocol. In brief, for kinase activity assays, PC12 cells were grown in 6-well plates (5×10^5 cells/well). Eighteen to twenty-four hours before experiments, the medium was replaced with DMEM with 0.5% FCS and treated as described in the figures. Experimental treatments were performed in 1 ml medium containing 0.5% FCS, with the vehicle or test drugs and/or inhibitors at 37° C., as described in the figures. After treatment, reactions were stopped by placing cells on ice and aspirating the medium. Cells were harvested in 50 mM Tris-HCl, pH 8.0, 150 mM NaCl, 5 mM EDTA, 1 mM DTT, 1% Triton X-100, and protease- and phosphatase-inhibitor cocktails. Protein concentration was determined by the Bradford method. As described previously (Yogev-Falach et al., 2002), each cell lysate, containing 30 μg protein, was separated on 4-12% SDS-polyacrylamide electrophoresis gels, immunoblotted, and identified using phospho-p44/42 MAPK (Thr202/Tyr204) antibody or p44/42 MAPK antibody. Data are representative of three to six independent experiments.
To study the effect of rasagiline on MAPK activation, PC12 cells were treated for 0.5 h with increasing concentrations of rasagiline (0.1, 1 and 10 μM), and quantification of the phospho-MAPK blots were normalized using the total MAPK blots, or PC12 cells were preincubated for 15 min with vehicle alone, or with PD98059 (30 μM) or GF109203X (2.5 μM) and then incubated without or with rasagiline (10 μM) for 0.5 h. Aliquots of cell lysates were then subjected to immunoblot analysis and probed with anti-phospho-MAPK (top blots) and anti-MAPK (bottom blots).
For the effect of propargylamine on MAPK activation, PC12 cells were treated for 0.5 h with increasing concentrations of propargylamine (0.1, 1 and 10 μM). Aliquots of cell lysates were then subjected to immunoblot analysis and probed with anti-phospho-MAPK and anti-MAP kinase. Quantification of the phospho-MAPK were normalized using the total MAPK blots.

sAPPα = sAPPα release into medium of SH-SY5Y neuroblastoma cells; type: cell-based, human; conditions: 3 h; for sAPPα secretion (fold/basal): 1 μM, SH-SY5Y conditioned media, mean ± SE of three experiments
Method: For the experiments, cells were seeded (2×10^6) onto 100-mm plates (for SH-SY5Y cells) or T75 flasks (for PC12 cells) in culture medium supplemented with full serum for 48 h. The cells were replaced with fresh medium containing 0.5% FCS for an additional 24 h (subconfluent culture), and then the experiments were performed in fresh medium containing 0.5% FCS for the indicated time periods at 37° C. After incubation with various drugs, the conditioned media were collected, centrifuged at 3500 g (10 min, 4° C.) to remove cell debris, and the cleared supernatants were concentrated 10-fold by lyophilization.
(vii) Determination of sAPP. Protein concentrations of cell lysates were assayed using Bradford reagent (Sigma Chemical). Equal amounts of volumes of conditioned medium, standardized to lysate protein, were subjected to […], using either the MAbs 22C11 or 6E10 in 50 mM Tris-HCl, pH 7.4, 150 mM NaCl, containing 0.05% Tween 20 and 1% BSA. Immunoreactivity was detected using anti-mouse IgG-conjugated with HRP and an enhanced chemiluminescence method (Amersham, Pharmacia Biotech, UK). Blots were developed for different times to span a linear range of response, and the relative intensity of immunoreactive bands on the exposed films was quantified by computer-assisted densitometry program (Quantity One, Bio-Rad, Hercules, Calif., USA).
It was of interest to determine whether rasagiline and other propargylamine-containing drugs also regulate APP processing. For this purpose, SH-SY5Y neuroblastoma cells were incubated for 3 h without or with 1 μM of various drugs (TV3326 and its S-isomer TV3279, rasagiline and its S-isomer TVP1022, selegiline, aminoindan), and sAPPα was measured in the media as described in Materials and Methods.
We further characterized, in detail, the effect of rasagiline on APP processing and the signaling pathways that are involved. Thus, SH-SY5Y neuroblastoma cells were incubated for 3 h without or with increasing concentrations of rasagiline (0.1, 1 and 10 μM), and sAPPα was measured in the media as described in Materials and Methods.
For the sAPPα release, SH-SY5Y neuroblastoma cells or PC12 cells were incubated for 3 h without or with increasing concentrations of propargylamine (0.1, 1 and 10 μM), and sAPPα was measured in the media as described in Materials and Methods.

caspase-3, BAD = assay: Serum free-induced caspase-3 cleavage and BAD levels (rasagiline, data not shown); type: cell-based
PKC = PKC phosphorylation in PC12 cell lysates, Western blot with p-PKC (pan) antibody; type: cell-based, rat; conditions: PC12, pre-treatment 2.5 μM
Method: (iv) Immunoblot Analyses. For Western blot analyses, attached cells were washed once in cold PBS and then lysed in 1× nonreducing Laemmli buffer followed by boiling for 3-5 min. Protein content was determined using the Bradford method. Equal amounts of protein were separated by SDS-polyacrylamide gel electrophoresis and blotted onto polyvinylidene difluoride (PVDF) membranes (Millipore). Membranes were treated with blocking buffer (5% dry milk in PBS or 5% dry milk, 0.05% Tween 20 (Sigma) in TBS). Primary antibodies were diluted in PBS or in TBS containing 5% BSA, 0.05% Tween 20 and incubated with membranes for 20 h at 4° C., followed by incubation (1 h at room temperature) in dilutions of horseradish peroxidase (HRP)-conjugated secondary antibodies in the same buffers. Following antibody incubations, membranes were washed in 0.5% Tween 20 in PBS or TBS. Detection was achieved using ECL™ Western Blotting Detection Reagent (Amersham, Pharmacia, Little Chalfort Buckinghamshire, UK). Quantification of results was accomplished by measuring the optical density of the labeled bands from the autoradiograms by scanning laser densitometry using the computerized imaging program Bio-ID (Imager, Bio1D software; Vilber Lourmat, Marne La Vallee, France). The values were normalized to β-actin intensity levels.
Since activation of PKC has been shown previously to modulate cell viability, resulting in protection of neuronal cells, it was of interest to investigate the effects of rasagiline on PKC activation. In one experiment, PC12 cells were untreated or treated with various concentrations of rasagiline (0.1, 1 and 10 μM) for 1 hour. […] Phosphorylation of PKC was analyzed in cell lysates by Western blotting and detected with p-PKC (pan) antibody.
The effect of propargylamine on PKC phosphorylation/activation was investigated as described in Example 2 above.

[1] = system: p-PKC (pan), PKCα and PKCε; assay: PKC translocation to membrane fraction of PC12 cells; type: cell-based, rat; conditions: PC12, 100 nM, 2 h
Method: (v) PKC translocation. Cells were cultured to confluence and treated for 2 h with either no drug (control), phorbol 12-myristate-13-acetate (PMA) (positive control) or rasagiline. After washing, the cells were harvested, collected by centrifugation (5 min, 1500 rpm), and homogenized by sonication (12 s, 22μ) in homogenization buffer (20 mM Tris-HCl, pH 7.4, 0.32 M sucrose, 2 mM EDTA, 50 mM β-mercaptoethanol) containing a protease inhibitor cocktail (Sigma Aldrich, Sweden). Cytosolic and particulate fractions were separated by ultracentrifugation (30 min, 100,000 g, 4° C.). For the particulate fraction, proteins were extracted by a 45 min incubation on ice in homogenization buffer containing 0.5% Triton X-100. Samples were then sonicated for 1 min and equivalent amounts of protein (15 μg) separated by PAGE followed by blotting onto nitrocellulose paper. Western blotting was performed essentially as described above using antibodies against p-PKC (pan), PKCα and PKCε.
PKC translocation to the membrane fraction upon activation and membrane localization is often used as a marker for PKC activation.

[2] = system: Bcl-2 family and PKC isoform mRNA; assay: Gene expression by quantitative real-time RT-PCR in serum-free PC12 cells; type: cell-based, rat
Method: (vi) Total RNA extraction. PC12 cells were cultured in DMEM containing 5% FCS and 10% horse serum until confluence. At the day of the experiment, the medium was replaced with fresh medium without serum and rasagiline or propargylamine at various concentrations were administered for 24 h. At the end of incubation, the medium was removed and isolation of total RNA was performed, using Tri Reagent™ Isolation reagent. Total RNA was treated with DNase-RNase free (Roche Diagnostics, Mannheim, Germany) for 30 min at 37° C. and subsequently extracted by a round of phenol:chlorophorm:isoamylalcohol (25:24:1), followed by one of chloroform. After precipitation with NaOAc (0.3 M) and ethyl alcohol, the RNA pellet was washed with 80% ethyl alcohol (12,000×g) for 10 min and resuspended in 50-100 μl of diethylpyrocarbonate (DEPC)-treated water and incubated for 5-10 min at 56° C. to facilitate resuspension.
(vi) Reverse transcription (RT) and quantitative real-time RT-PCR. In order to confirm the results obtained with the customized cDNA expression micro-array, 2 μg of total RNA were denatured and reverse transcribed using random hexanucleotides (0.5 μg/μl). Secondary structures of the template and primer (total volume of 16 μl) were opened by incubation for 5 min at 70° C. and immediately cooled on ice. Reaction mix (9 μl) containing reaction buffer, dNTP (0.5 mm each), RNAasin™ RNAase inhibitor (Promega) (25U) and M-MLV reverse transcriptase (200U) was added and samples were incubated at 39° C. for 1 h. For every RNA preparation a negative control was run in parallel consisting of a direct amplification of the RNA sample, omitting the RT step. The samples were transferred to 92° C. for 10 min, in order to deactivate the enzyme, and then cooled to 4° C.
Quantitative real-time PCR, using LightCycler and FastStart DNA Master SYBR Green I ready-to use PCR mix, was performed according to the manufacture's protocol (Roche Diagnostics, Mannheim, Germany). cDNA (40 ng) was amplified in 20 μl total volume. The sequences of the primers and the size of the products are described in Table 1. The results are analyzed on the provided program of the LightCycler. The relative expression level of a given mRNA was assessed by normalizing to the housekeeping gene 18S-rRNA and compared with control values.
In this experiment, we examined whether Bcl-2 family proteins mediate the pro-survival effect of rasagiline, using serum-starved rat pheochromocytoma PC12 cell line as a model of neuronal apoptosis. PC12 cells were maintained in full-serum (control), or in serum-free (SF) media in the absence or presence of various concentrations of rasagiline (0.001, 0.1, 1 and 10 μM) for 3 h or 24 h, and gene expression was measured by quantitative real-time RT-PC. The real-time RT-PCR consists of RNA samples isolated from said PC-12 cells. Each gene expression was normalized to the housekeeping gene, 18S-rRNA, since this transcript was reported to be less susceptible to the influence by external factors.
The effect of propargylamine on Bad and Bax mRNA levels was examined as described in Example 5 above.

PC12 cells = conditions: PC12, 10 μM, 24 h

In the case of `NC1CCc2ccccc21` (centres unmarked) [Aminoindan, aminoindan], the MAPK phosphorylation (MAPK; PC12, 0.1, 1 and 10 μM, 0.5 h) is reported as “did not show such effects”, the “sAPPα secretion (fold/basal)” value (sAPPα) is reported as 1.23 ± 0.32 fold/basal and the “sAPPα released into the medium” value (sAPPα; SH-SY5Y, 0.1, 1 and 10 μM, versus untreated cells) is reported as “did not show such effects”.
For `CN(C)CCCn1cc(C2=C(c3c[nH]c4ccccc34)C(=O)NC2=O)c2ccccc21` [GF109203X], the “effect on rasagiline-induced decrease of BAD” value (caspase-3, BAD) was “blocked”, the “effect on rasagiline suppression of caspase-3 cleavage” value (caspase-3, BAD; data not shown) was “reversed” and the “effect on rasagiline-induced MAPK activation” value (MAPK; PC12, preincubation 2.5 μM, rasagiline 10 μM 0.5 h) was “abolished the effect of rasagiline on MAPK activation”. For the same molecule, the “effect on propargylamine-induced PKC phosphorylation” value (PKC; propargylamine 1 μM 1 h) was “blocked the effect of propargylamine on PKC phosphorylation” and the “effect on rasagiline-induced PKC phosphorylation” value (PKC; rasagiline 1 μM 1 h) was “significantly reduced rasagiline-induced PKC phosphorylation”.
For `COc1cccc(-c2cc(=O)c3ccccc3o2)c1N` [PD98059], the “effect on rasagiline-induced MAPK phosphorylation” value (MAPK; PC12, pretreatment 30 μM, rasagiline 10 μM 0.5 h) was “blocked the rasagiline-induced increase of MAPK phosphorylation”.
With `CCCCCCCCCCCCCC(=O)O[C@@H]1[C@@H](C)[C@@]2(O)[C@@H](C=C(CO)C[C@]3(O)C(=O)C(C)=C[C@@H]23)[C@@H]2C(C)(C)[C@]12OC(C)=O` [PMA, phorbol 12-myristate-13-acetate] the “translocation of PKCα” value [1] was 157%, the “translocation of PKCε” value [1] was 212% and the “translocation of p-PKC (pan)” value [1] was 214%.
For `C#CCN[C@@H]1CCc2ccccc21` [Rasagiline, N-propargyl-(1R)-aminoindan], the “lowest dose giving MAPK activation” value (MAPK; PC12, 0.5 h) was 0.1 µM, the “sAPPα secretion (fold/basal)” value (sAPPα) was 2.97 ± 0.15^b fold/basal and the “increase in sAPPα secretion over the basal levels” value (sAPPα; SH-SY5Y, 10 μM (maximal effect)) was about 3.0 fold. The “Bad mRNA reduction” value ([2]; 1 μM, 3 h) was 1.35 fold vs. serum free treatment, the “Bcl-xL mRNA expression increase” value ([2]; 10 μM, 24 h, compared to serum-free culture) was “about 2 fold” and the “Bad mRNA reduction” value ([2]; 0.01 and 0.1 μM, 24 h) was ~2.5 fold vs. serum free culture. The “Bcl-W mRNA expression” value ([2]; 0.1, 1 and 10 μM, 24 h) was 135 % of serum-free culture.
In the case of `C#CCN(C)[C@H](C)Cc1ccccc1` [Selegiline, R-(−)-N-methyl-N-(prop-2-ynyl)-2-aminophenylpropane], the “sAPPα secretion (fold/basal)” value (sAPPα) is reported as 2.03 ± 0.21^c fold/basal.
`C#CCN[C@H]1CCc2ccc(OC(=O)N(C)CC)cc21` [TV3279] was tested, and the “sAPPα secretion (fold/basal)” value (sAPPα) was 2.76 ± 0.36^b fold/basal.
With `C#CCN[C@@H]1CCc2ccc(OC(=O)N(C)CC)cc21` [TV3326, (N-propargyl-(3R)aminoindan-5yl)-ethyl methyl carbamate] the “sAPPα secretion (fold/basal)” value (sAPPα) was 2.86 ± 0.35^b fold/basal.
“Aβ1-42: amyloidogenic Aβ peptide, used as toxic insult” was tested, and the cell viability (PC12 cells) was 66 % of control.
